According to US8969325B2, “TRPV1 antagonists” (AbbVie Inc., priority 2011, dated 2015):

What was measured:
human TRPV1 [1] = biological target: T1, human TRPV1 (Homo sapiens (Human), UniProt Q8NER1); assay: Acid Activation Assay (pH 5.0, intracellular Ca2+, FLIPR); assay type: cell-based; conditions: percentage of the maximal pH 5.0-induced response remaining; recombinant HEK293 hTRPV1 cells; maximum concentration tested 37.5 μM
Method in brief: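 HEK293 cells stably expressing recombinant hTRPV1, loaded with Calcium-4 dye 90-120 min at 25° C. Compounds added over a 12-point half-log range (top 37.5 μM), then pH 5.0 DPBS/MES challenge after 3 min; FLIPR peak fluorescence over baseline given as % of maximal pH 5.0 response.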

human TRPV1 [2] = biological target: T1, human TRPV1; assay: Capsaicin Activation Assay (intracellular Ca2+, FLIPR); assay type: cell-based; conditions: recombinant HEK293 cells expressing hTRPV1, 50 nM capsaicin
Method in brief: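 Stably transfected HEK293 cells expressing human TRPV1 cDNA, plated the day before in poly-D-lysine plates. Compounds serially diluted from 10 mM DMSO stocks; intracellular Ca2+ fluorescence read on FLIPR at 1 to 5 second intervals.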

T1 sequence (Q8NER1 whole entry): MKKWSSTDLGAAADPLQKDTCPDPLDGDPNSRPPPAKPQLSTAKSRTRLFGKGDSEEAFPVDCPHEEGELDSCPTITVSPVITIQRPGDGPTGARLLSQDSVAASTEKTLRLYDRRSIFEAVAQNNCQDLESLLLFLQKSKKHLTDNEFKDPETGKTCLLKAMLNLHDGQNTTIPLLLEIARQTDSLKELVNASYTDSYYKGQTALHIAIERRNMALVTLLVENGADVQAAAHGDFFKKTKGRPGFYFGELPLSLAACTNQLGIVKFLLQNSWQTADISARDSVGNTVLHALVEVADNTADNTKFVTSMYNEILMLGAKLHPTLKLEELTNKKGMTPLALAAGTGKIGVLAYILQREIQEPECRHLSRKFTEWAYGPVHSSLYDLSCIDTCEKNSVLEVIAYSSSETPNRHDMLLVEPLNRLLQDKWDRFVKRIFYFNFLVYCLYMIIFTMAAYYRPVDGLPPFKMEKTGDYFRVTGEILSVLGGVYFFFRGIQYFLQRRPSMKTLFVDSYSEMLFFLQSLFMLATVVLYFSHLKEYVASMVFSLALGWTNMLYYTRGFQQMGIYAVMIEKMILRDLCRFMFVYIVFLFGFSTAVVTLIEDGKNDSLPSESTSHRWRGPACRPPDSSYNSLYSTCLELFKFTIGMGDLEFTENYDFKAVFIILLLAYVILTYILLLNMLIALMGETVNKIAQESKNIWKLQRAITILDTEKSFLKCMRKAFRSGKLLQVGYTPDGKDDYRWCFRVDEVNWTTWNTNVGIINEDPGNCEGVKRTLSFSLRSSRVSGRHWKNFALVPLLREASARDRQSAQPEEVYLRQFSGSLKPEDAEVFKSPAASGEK

Row | SMILES | human TRPV1 H^+ (max % remain) (human TRPV1 [1]) | IC50 (human TRPV1 [2])
1 | O=C1CCc2ccc(NC(=O)N[C@@H]3CC(CF)(CF)Oc4c(F)cc(F)cc43)cc2N1 [Example 214, 1-[(4R)-6,8-difluoro-2,2-bis(fluoromethyl)-3,4-dihydro-2H-chromen-4-yl]-3-(2-oxo-1,2,3,4-tetrahydroquinolin-7-yl)urea] | 40% | 180 nM
2 | O=C1CCc2ccc(NC(=O)N[C@@H]3CC(CF)(CF)Oc4ccccc43)cc2N1 [Example 215, 1-[(4R)-2,2-bis(fluoromethyl)-3,4-dihydro-2H-chromen-4-yl]-3-(2-oxo-1,2,3,4-tetrahydroquinolin-7-yl)urea] | 49% | 60 nM
3 | O=C1CCc2ccc(NC(=O)N[C@@H]3CC(CF)(CF)Oc4c(F)cccc43)cc2N1 [Example 216, 1-[(4R)-8-fluoro-2,2-bis(fluoromethyl)-3,4-dihydro-2H-chromen-4-yl]-3-(2-oxo-1,2,3,4-tetrahydroquinolin-7-yl)urea] | 50% | 220 nM
4 | O=C1CCc2ccc(NC(=O)N[C@H]3CC(CF)(CF)Oc4cc(Cl)ccc43)cc2N1 [Example 217, 1-[(4S)-7-chloro-2,2-bis(fluoromethyl)-3,4-dihydro-2H-chromen-4-yl]-3-(2-oxo-1,2,3,4-tetrahydroquinolin-7-yl)urea] | 50% | 430 nM
5 | CC1(C)C[C@@H](NC(=O)Nc2ccc3c(c2)NC(=O)CC3)c2cccc(C(F)(F)F)c2O1 [Example 218, 1-[(4R)-2,2-dimethyl-8-(trifluoromethyl)-3,4-dihydro-2H-chromen-4-yl]-3-(2-oxo-1,2,3,4-tetrahydroquinolin-7-yl)urea] | 101% | 3600 nM
6 | CC1(C)C[C@@H](NC(=O)Nc2ccc3c(c2)NC(=O)CC3)c2cccc(F)c2O1 [Example 219, 1-[(4R)-8-fluoro-2,2-dimethyl-3,4-dihydro-2H-chromen-4-yl]-3-(2-oxo-1,2,3,4-tetrahydroquinolin-7-yl)urea] | 29% | 56 nM
7 | O=C1CCc2ccc(NC(=O)N[C@@H]3CCOc4ccccc43)cc2N1 [Example 220, 1-[(4R)-3,4-dihydro-2H-chromen-4-yl]-3-(2-oxo-1,2,3,4-tetrahydroquinolin-7-yl)urea] | 41% | 190 nM
8 | CCC1(CC)C[C@@H](NC(=O)Nc2ccc3c(c2)NC(=O)CC3)c2ccccc2O1 [Example 223, 1-[(4R)-2,2-diethyl-3,4-dihydro-2H-chromen-4-yl]-3-(2-oxo-1,2,3,4-tetrahydroquinolin-7-yl)urea] | 44% | 37 nM
9 | CCC1(CC)C[C@@H](NC(=O)Nc2ccc3c(c2)NC(=O)CC3)c2ccc(C(F)(F)F)cc2O1 [Example 224, 1-[(4R)-2,2-diethyl-7-(trifluoromethyl)-3,4-dihydro-2H-chromen-4-yl]-3-(2-oxo-1,2,3,4-tetrahydroquinolin-7-yl)urea] | 44% | 35 nM
10 | CCC1(CC)C[C@@H](NC(=O)Nc2ccc3c(c2)NC(=O)CC3)c2ccc(Cl)cc2O1 [Example 225, 1-[(4R)-7-chloro-2,2-diethyl-3,4-dihydro-2H-chromen-4-yl]-3-(2-oxo-1,2,3,4-tetrahydroquinolin-7-yl)urea] | 12% | 130 nM
11 | CCC1(CC)C[C@@H](NC(=O)Nc2ccc3c(c2)NC(=O)CC3)c2ccc(Cl)c(Cl)c2O1 [Example 226, 1-[(4R)-7,8-dichloro-2,2-diethyl-3,4-dihydro-2H-chromen-4-yl]-3-(2-oxo-1,2,3,4-tetrahydroquinolin-7-yl)urea] | 12% | 100 nM
12 | CCCC1(CCC)C[C@@H](NC(=O)Nc2ccc3c(c2)NC(=O)CC3)c2cc(F)ccc2O1 [Example 227, 1-[(4R)-6-fluoro-2,2-dipropyl-3,4-dihydro-2H-chromen-4-yl]-3-(2-oxo-1,2,3,4-tetrahydroquinolin-7-yl)urea] | 19% | 220 nM
13 | O=C1CCc2ccc(NC(=O)N[C@@H]3CC4(CCC4)Oc4ccc(F)cc43)cc2N1 [Example 228, 1-[(4R)-6-fluoro-3,4-dihydrospiro[chromene-2,1′-cyclobutan]-4-yl]-3-(2-oxo-1,2,3,4-tetrahydroquinolin-7-yl)urea] | 57% | 120 nM
14 | CCC1(CC)C[C@@H](NC(=O)Nc2ccc3c(c2)NC(=O)CC3)c2cc(F)ccc2O1 [Example 229, 1-[(4R)-2,2-diethyl-6-fluoro-3,4-dihydro-2H-chromen-4-yl]-3-(2-oxo-1,2,3,4-tetrahydroquinolin-7-yl)urea] | 36% | 74 nM
15 | CCCC1(CCC)C[C@@H](NC(=O)Nc2ccc3c(c2)NC(=O)CC3)c2cccc(F)c2O1 [Example 230, 1-[(4R)-8-fluoro-2,2-dipropyl-3,4-dihydro-2H-chromen-4-yl]-3-(2-oxo-1,2,3,4-tetrahydroquinolin-7-yl)urea] | 24% | 38 nM
16 | O=C1CCc2ccc(NC(=O)N[C@@H]3CC(CF)(CF)Oc4c3ccc(Cl)c4F)cc2N1 [Example 231, 1-[(4R)-7-chloro-8-fluoro-2,2-bis(fluoromethyl)-3,4-dihydro-2H-chromen-4-yl]-3-(2-oxo-1,2,3,4-tetrahydroquinolin-7-yl)urea] | 55% | 76 nM
17 | CC1(C)C[C@@H](NC(=O)Nc2ccc3c(c2)NC(=O)CC3)c2cc(F)ccc2O1 [Example 232, 1-[(4R)-6-fluoro-2,2-dimethyl-3,4-dihydro-2H-chromen-4-yl]-3-(2-oxo-1,2,3,4-tetrahydroquinolin-7-yl)urea] | 32% | 140 nM
18 | CC1(C)C[C@@H](NC(=O)Nc2ccc3c(c2)NC(=O)CC3)c2ccc(F)c(Cl)c2O1 [Example 233, 1-[(4R)-8-chloro-7-fluoro-2,2-dimethyl-3,4-dihydro-2H-chromen-4-yl]-3-(2-oxo-1,2,3,4-tetrahydroquinolin-7-yl)urea] | 37% | 350 nM
19 | O=C1CCc2ccc(NC(=O)N[C@H]3CCOc4cc(OC(F)(F)F)ccc43)cc2N1 [Example 234, 1-(2-oxo-1,2,3,4-tetrahydroquinolin-7-yl)-3-[(4S)-7-(trifluoromethoxy)-3,4-dihydro-2H-chromen-4-yl]urea] | 27% | 90 nM
20 | CC1(C)C[C@@H](NC(=O)Nc2ccc3c(c2)NC(=O)CC3)c2ccc(Cl)cc2O1 [Example 235, 1-[(4R)-7-chloro-2,2-dimethyl-3,4-dihydro-2H-chromen-4-yl]-3-(2-oxo-1,2,3,4-tetrahydroquinolin-7-yl)urea] | 29% | 1300 nM
21 | O=C1CCc2ccc(NC(=O)N[C@@H]3CCOc4cc(OC(F)(F)F)ccc43)cc2N1 [Example 236, 1-(2-oxo-1,2,3,4-tetrahydroquinolin-7-yl)-3-[(4R)-7-(trifluoromethoxy)-3,4-dihydro-2H-chromen-4-yl]urea] | 27% | 32 nM
22 | COCC1(COC)C[C@@H](NC(=O)Nc2ccc3c(c2)NC(=O)CC3)c2cc(F)ccc2O1 [Example 237, 1-[(4R)-6-fluoro-2,2-bis(methoxymethyl)-3,4-dihydro-2H-chromen-4-yl]-3-(2-oxo-1,2,3,4-tetrahydroquinolin-7-yl)urea] | 52% | 150 nM
23 | O=C1CCc2ccc(NC(=O)N[C@@H]3CCOc4c3cccc4C(F)(F)F)cc2N1 [Example 238, 1-(2-oxo-1,2,3,4-tetrahydroquinolin-7-yl)-3-[(4R)-8-(trifluoromethyl)-3,4-dihydro-2H-chromen-4-yl]urea] | 47% | 510 nM
24 | O=C1CCc2ccc(NC(=O)N[C@@H]3CCOc4cc(C(F)(F)F)ccc43)cc2N1 [Example 239, 1-(2-oxo-1,2,3,4-tetrahydroquinolin-7-yl)-3-[(4R)-7-(trifluoromethyl)-3,4-dihydro-2H-chromen-4-yl]urea] | 26% | 47 nM
25 | O=C1CCc2ccc(NC(=O)N[C@@H]3CCc4cc(F)ccc43)cc2N1 [Example 240, 1-[(1R)-5-fluoro-2,3-dihydro-1H-inden-1-yl]-3-(2-oxo-1,2,3,4-tetrahydroquinolin-7-yl)urea] | 25% | 37 nM
26 | O=C1CCc2ccc(NC(=O)N[C@H]3CC4(CCC4)Oc4ccc(F)cc43)cc2N1 [Example 242, 1-[(4S)-6-fluoro-3,4-dihydrospiro[chromene-2,1′-cyclobutan]-4-yl]-3-(2-oxo-1,2,3,4-tetrahydroquinolin-7-yl)urea] | 30% | 86 nM
27 | CC1(C)C[C@H](NC(=O)Nc2ccc3c(c2)NC(=O)CC3)c2cc(F)ccc2O1 [Example 243, 1-[(4S)-6-fluoro-2,2-dimethyl-3,4-dihydro-2H-chromen-4-yl]-3-(2-oxo-1,2,3,4-tetrahydroquinolin-7-yl)urea] | 45% | 4900 nM
28 | O=C1CCc2ccc(NC(=O)N[C@@H]3CC4(CCCC4)Oc4ccccc43)cc2N1 [Example 244, 1-[(4R)-3,4-dihydrospiro[chromene-2,1′-cyclopentan]-4-yl]-3-(2-oxo-1,2,3,4-tetrahydroquinolin-7-yl)urea] | 41% | 7100 nM
29 | C[C@@]1(C(F)(F)F)C[C@@H](NC(=O)Nc2ccc3c(c2)NC(=O)CC3)c2ccccc2O1 [Example 245, 1-[(2S,4R)-2-methyl-2-(trifluoromethyl)-3,4-dihydro-2H-chromen-4-yl]-3-(2-oxo-1,2,3,4-tetrahydroquinolin-7-yl)urea] | 28% | 280 nM
